Experiments:
[1] = Toxicity in ICR mouse assessed as induction of catalepsy at 1 mg/kg, po; assay type: organism-based; conditions: in vivo
[2] = Toxicity in ICR mouse assessed as induction of sedation by measuring spontaneous locomotor activity at 0.3 to 3 mg/kg, po measured for 30 mins following drug administration; assay type: organism-based; conditions: in vivo, 0.5 h, dose 0.3-3 mg/kg
[3] = target: 5-hydroxytryptamine receptor 2A (Homo sapiens, UniProt P28223); assay: Antagonist activity at 5-HT2A receptor (unknown origin) assessed as decrease in intracellular calcium flux preincubated with calcium followed by compound challenge and measured after 10 mins by FLIPR method; assay type: functional, cell-based
[4] = target: T1, 5-hydroxytryptamine receptor 1A (Homo sapiens, UniProt P08908); assay: Agonist activity at 5-HT1A receptor (unknown origin) preincubated for 60 mins followed by addition of Eu-cAMP and measured after 60 mins by plate reader method; assay type: functional
T1 sequence (P08908 whole entry): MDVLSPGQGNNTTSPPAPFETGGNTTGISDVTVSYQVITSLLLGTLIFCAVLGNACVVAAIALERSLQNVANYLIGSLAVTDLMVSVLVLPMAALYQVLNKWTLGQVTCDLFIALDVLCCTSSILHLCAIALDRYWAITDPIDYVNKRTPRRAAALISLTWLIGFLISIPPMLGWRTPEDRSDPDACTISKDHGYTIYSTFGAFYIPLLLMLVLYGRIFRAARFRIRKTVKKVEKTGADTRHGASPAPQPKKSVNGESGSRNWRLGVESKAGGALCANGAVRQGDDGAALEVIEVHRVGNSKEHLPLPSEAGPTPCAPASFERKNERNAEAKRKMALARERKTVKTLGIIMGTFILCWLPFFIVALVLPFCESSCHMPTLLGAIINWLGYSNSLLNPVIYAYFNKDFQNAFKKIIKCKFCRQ

D(2) dopamine receptor = D(2) dopamine receptor (Homo sapiens, UniProt P14416); assay: Antagonist activity at D2 receptor (unknown origin) preincubated for 60 mins followed by addition of Eu-cAMP and measured after 60 mins by plate reader method; assay type: functional
Mus musculus = assay: Antipsychotic activity in ICR mouse assessed as reduction of PCP induced hyperactivity at 3 mg/kg, ig pretreated with compound for 30 mins followed by PCP challenge for 10 mins and measured after 60 mins; assay type: functional; conditions: po, 1.667 h, time 100 min

Sequence of D(2) dopamine receptor (P14416 whole entry): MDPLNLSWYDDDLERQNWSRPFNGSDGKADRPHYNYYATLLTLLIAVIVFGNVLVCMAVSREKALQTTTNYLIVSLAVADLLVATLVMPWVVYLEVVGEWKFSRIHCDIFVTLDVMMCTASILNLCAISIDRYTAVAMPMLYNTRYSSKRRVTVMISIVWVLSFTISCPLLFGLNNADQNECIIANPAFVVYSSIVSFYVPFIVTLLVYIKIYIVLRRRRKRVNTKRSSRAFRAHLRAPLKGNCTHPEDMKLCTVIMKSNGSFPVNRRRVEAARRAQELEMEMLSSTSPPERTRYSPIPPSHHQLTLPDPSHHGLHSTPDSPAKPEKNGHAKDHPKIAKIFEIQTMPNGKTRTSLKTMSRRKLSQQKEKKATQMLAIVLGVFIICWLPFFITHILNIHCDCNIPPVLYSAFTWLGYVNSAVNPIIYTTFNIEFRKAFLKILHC
Sequence of 5-hydroxytryptamine receptor 2A (P28223 whole entry): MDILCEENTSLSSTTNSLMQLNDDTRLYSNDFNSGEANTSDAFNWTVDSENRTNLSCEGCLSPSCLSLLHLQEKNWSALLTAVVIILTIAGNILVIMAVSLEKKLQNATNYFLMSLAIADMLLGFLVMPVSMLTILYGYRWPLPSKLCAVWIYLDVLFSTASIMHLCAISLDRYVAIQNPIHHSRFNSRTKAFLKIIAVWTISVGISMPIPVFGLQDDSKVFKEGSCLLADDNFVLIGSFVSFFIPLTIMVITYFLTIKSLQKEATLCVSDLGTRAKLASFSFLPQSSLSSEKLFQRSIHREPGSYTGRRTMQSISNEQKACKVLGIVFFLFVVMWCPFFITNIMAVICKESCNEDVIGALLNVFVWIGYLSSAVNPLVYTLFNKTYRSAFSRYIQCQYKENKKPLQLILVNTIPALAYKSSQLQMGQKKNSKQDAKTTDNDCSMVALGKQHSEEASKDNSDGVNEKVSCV

SMILES | Activity [1] | Activity [2] | IC50 ([3]; read-out: pIC50 (converted)) [nM] | EC50 ([4]; read-out: pEC50 (converted)) [nM] | IC50 (D(2) dopamine receptor) [nM] | inhibition in vivo at 3 mg/kg (Mus musculus) [%] | IC50 ([3]; read-out: IC50) [nM] | EC50 ([4]; read-out: EC50) [nM]
O=c1[nH]c(=O)n(CCCCN2CCN(c3cccc4sccc34)CC2)c2ccccc12 | Non-Toxic | Non-Toxic | 129 | 3.39 | – | – | – | –
Nc1ccc2c(c1)N(CCCCN1CCN(c3cccc4sccc34)CC1)S(=O)(=O)CC2 | – | – | 2.82 | 0.794 | 67.6 | 48 | – | –
O=C1CCc2ccc(OCCCCN3CCN(c4cccc(Cl)c4Cl)CC3)cc2N1 [ARIPIPRAZOLE] | – | – | – | – | – | 54 | – | –
O=C1COc2ccccc2N1CCCCN1CCN(c2cccc3sccc23)CC1 | – | – | – | – | – | 39 | 1.64 | 0.51
COc1ccc2ncc(=O)n(CCCCN3CCN(c4cccc5sccc45)CC3)c2c1 | – | – | 20.9 | 2.69 | – | – | – | –
O=C1NCC(=O)N(CCCCN2CCN(c3cccc4sccc34)CC2)c2cc(F)ccc21 | – | – | 24.5 | 4.07 | 34.7 | 43 | – | –
CN1CC(=O)N(CCCCN2CCN(c3cccc4sccc34)CC2)c2ccccc2C1=O | – | – | 42.7 | 11 | 123 | 15 | – | –
O=S1(=O)CCc2ccc(O)cc2N1CCCCN1CCN(c2cccc3sccc23)CC1 | – | – | 18.6 | 1.12 | 20 | 13 | – | –
